# Active and inactive are the calls of the source.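 How the source made its calls: active means AC50 no higher than twice the top valid tested dose, with signal falling as dose rises; inconclusive means flat fit with partial inhibition, or a poor-quality fit; inactive means the rest, plus effects in the rising direction.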
# Target: Kelch-like ECH-associated protein 1 (Homo sapiens) (UniProt Q14145)
# Experiment: disruptors of Keap1/Nrf2 protein interaction – biochemical, fluorescence polarization, dry powder, set 3, dose response (AID 651806)
# Conditions: Keap1 Kelch/FITC-Nrf2 peptide fluorescence polarization
# Chain of Kelch-like ECH-associated protein 1 (Homo sapiens) (Q14145 whole entry, looked up): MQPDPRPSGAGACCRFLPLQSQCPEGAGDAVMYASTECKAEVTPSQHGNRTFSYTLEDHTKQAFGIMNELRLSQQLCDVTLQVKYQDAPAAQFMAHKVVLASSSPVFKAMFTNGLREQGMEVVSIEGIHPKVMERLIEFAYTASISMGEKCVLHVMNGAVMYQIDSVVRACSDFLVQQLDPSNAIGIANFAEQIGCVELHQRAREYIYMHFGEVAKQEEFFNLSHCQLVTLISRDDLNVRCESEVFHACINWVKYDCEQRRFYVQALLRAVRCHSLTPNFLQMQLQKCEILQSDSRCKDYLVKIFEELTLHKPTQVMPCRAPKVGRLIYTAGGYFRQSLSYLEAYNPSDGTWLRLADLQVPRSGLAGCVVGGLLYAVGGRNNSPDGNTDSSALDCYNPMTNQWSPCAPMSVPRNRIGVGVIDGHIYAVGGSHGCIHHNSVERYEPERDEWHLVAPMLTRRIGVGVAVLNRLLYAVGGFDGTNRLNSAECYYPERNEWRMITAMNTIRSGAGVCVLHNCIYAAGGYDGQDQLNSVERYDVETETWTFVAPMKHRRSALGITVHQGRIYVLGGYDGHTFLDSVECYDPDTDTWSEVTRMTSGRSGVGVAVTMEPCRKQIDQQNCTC
row,AC50,Structure (SMILES)
1,> 100 µM (inactive),O=C(O)C1CCCCC1C(=O)N1CCc2ccccc2C1CN1C(=O)Cc2ccccc2C1=O (stereo not given)
2,> 100 µM (inactive),Cc1ccc(S(=O)(=O)NC(=O)[C@@H]2c3ccccc3CCN2C(=O)[C@@H]2CCCC[C@@H]2C(=O)O)cc1
3,> 100 µM (inactive),Cc1ccc(S(=O)(=O)Nc2cc(C(C(=O)OC(C)C)C(=O)C(F)(F)F)c(O)c3ccccc23)cc1 (stereo not given)
4,> 100 µM (inactive),O=C(O)[C@H]1CCCC[C@H]1C(=O)N1CCC2=C(CCCC2)C1CN1C(=O)c2ccccc2C1=O (stereo not given in full)
5,> 100 µM (inactive),O=C(O)C1CCCCC1C(=O)N1CCc2ccccc2C1CN1C(=O)c2ccccc2S1(=O)=O (stereo not given)
6,> 100 µM (inactive),Cc1ccccc1S(=O)(=O)Nc1cc(C(C(=O)OC(C)C)C(=O)C(F)(F)F)c(O)c2ccccc12 (stereo not given)
7,> 100 µM (inactive),CC(C)OC(=O)C(C(=O)C(F)(F)F)c1cc(NS(=O)(=O)c2ccccc2)c2ccccc2c1O (stereo not given)
8,> 100 µM (inactive),CC(=O)Nc1cc(NS(=O)(=O)c2c(C)cc(C)cc2C)c2ccccc2c1O
9,14.7 µM,Cc1cc(C)c(S(=O)(=O)Nc2cc(C(C(=O)OC(C)C)C(=O)C(F)(F)F)c(O)c3ccccc23)c(C)c1 (stereo not given)

# Same assay, conditions: Keap1 Kelch/FITC-Nrf2 peptide fluorescence polarization; at 12 µM (top of the series)
row,"activity change, negative = inhibition",Structure (SMILES)
1,inactive,O=C1c2ccccc2C(=O)N1CC1c2ccccc2CCN1C(=O)Cc1ccccc1 (stereo not given)

# Same assay, conditions: Keap1 Kelch/FITC-Nrf2 peptide fluorescence polarization; at 50 µM (top of the series)
row,"activity change, negative = inhibition",Structure (SMILES)
1,inactive,O=C(O)[C@H]1CCCC[C@H]1C(=O)NC(CN1C(=O)c2ccccc2C1=O)c1ccccc1 (stereo not given in full)
2,inactive,O=C(O)[C@H]1C2C=CC(C2)[C@H]1C(=O)N1CCc2ccccc2C1CN1C(=O)c2ccccc2C1=O (stereo not given in full)
3,inactive,NC(=O)c1ccccc1C(=O)NC[C@@H]1c2ccccc2CCN1C(=O)[C@@H]1CCCC[C@@H]1C(=O)O
4,inactive,O=C(O)C1CCCCC1C(=O)N1CCc2ccccc2C1CN1C(=O)[C@H]2CCCC[C@H]2C1=O (stereo not given in full)
5,inactive,O=C1c2ccccc2C(=O)N1CC1=NCCc2ccccc21
6,inactive,O=C(O)C1CCCCC1C(=O)N1CCCCC1CN1C(=O)c2ccccc2C1=O (stereo not given)
7,inactive,O=C(O)C1CCCCC1C(=O)N1CCc2ccccc2C1c1ccccc1 (stereo not given)
8,inactive,O=C1c2ccccc2C(=O)N1C[C@@H]1c2ccccc2CCN1C(=O)C1CCCCC1
9,inactive,CCOC(=O)C(C(=O)OCC)c1cc(CN2C(=O)c3ccccc3C2=O)c2ccccc2n1
10,inactive,O=S(=O)(Nc1nc(NCC2CCCCC2)nc2ccccc12)c1ccccc1
11,inactive,COC(=O)C(C(=O)OC)c1cc(NS(=O)(=O)c2c(C)cc(C)cc2C)c2ccccc2c1O
12,inactive,Cc1ccc(S(=O)(=O)NNc2nc(N3CC(O)CC3C(=O)O)nc3ccccc23)cc1 (stereo not given)
13,inactive,Cc1ccc(S(=O)(=O)NC[C@@H]2c3ccccc3CCN2C(=O)[C@@H]2CCCC[C@@H]2C(=O)O)c(C)c1
14,inactive,Cc1cc(C)c(S(=O)(=O)Nc2ncnc3ccccc23)c(C)c1
15,inactive,C[C@@H](NC(=O)C1CCCC[C@H]1C(=O)O)c1ccccc1 (mixture of isomers)
16,inactive,Cc1ccc(S(=O)(=O)NC2=CC(=N[C@@H](C)C(=O)OC(C)(C)C)C(=O)c3ccccc32)c(C)c1
17,inactive,O=C(O)[C@H]1CCCC[C@H]1C(=O)N1CCc2ccccc2[C@H]1CNc1nc(Cl)nc2ccccc12
18,inactive,Cc1ccc(S(=O)(=O)NC(=O)[C@@H]2c3ccccc3CCN2C(=O)[C@@H]2CCCC[C@@H]2C(=O)O)cc1
19,inactive,O=C(NCCc1ccccc1)c1ccccc1C(=O)NC[C@@H]1c2ccccc2CCN1C(=O)C1CCCCC1C(=O)O (stereo not given in full)
20,inactive,O=C(NCCO)c1ccccc1C(=O)NC[C@@H]1c2ccccc2CCN1C(=O)C1CCCCC1C(=O)O (stereo not given in full)
21,inactive,NC(=O)[C@H]1CCCC[C@H]1C(=O)N1CCc2ccccc2[C@H]1CN1C(=O)c2ccccc2C1=O
22,inactive,O=C(NC[C@@H]1c2ccccc2CCN1C(=O)[C@@H]1CCCC[C@@H]1C(=O)O)c1ccc(CN2CCOCC2)cc1

row,"activity change, negative = inhibition",Structure (SMILES)
1,inactive,O=C(O)[C@H]1CCCC[C@H]1C(=O)N1CCc2ccccc2C1 (racemic)
2,inactive,COC(=O)C1CCCCC1C(=O)N1CCc2ccccc2C1CN1C(=O)c2ccccc2C1=O (stereo not given)
3,inactive,O=C(O)/C=C\C(=O)N1CCc2ccccc2C1CN1C(=O)c2ccccc2C1=O (stereo not given)
4,inactive,O=C(O)CCCC(=O)N1CCc2ccccc2C1CN1C(=O)c2ccccc2C1=O (stereo not given)
5,inactive,COc1ccc(CCN=C2C=C(NS(=O)(=O)c3c(C)cc(C)cc3C)c3ccccc3C2=O)cc1
6,inactive,O=C(O)[C@H]1CCCC[C@H]1C(=O)N1CCC2=C(CCCC2)C1CN1C(=O)c2ccccc2C1=O (stereo not given in full)
7,inactive,O=C(O)C1CCCCC1C(=O)N1CCc2ccccc2[C@H]1C(=O)NC12CC3CC(CC(C3)C1)C2 (stereo not given in full)
8,inactive,Cc1cc(C)c(S(=O)(=O)Nc2nc(C(C(=O)OC(C)C)C(=O)C(F)(F)F)nc3ccccc23)c(C)c1 (stereo not given)
9,inactive,O=C(Oc1cc(CN2C(=O)c3ccccc3C2=O)c2ccccc2[n+]1[O-])c1cccc(Cl)c1
10,inactive,O=C1c2ccccc2C(=O)N1C[C@@H]1c2ccccc2CCN1C(=O)OCc1ccccc1
11,inactive,CCOC(=O)C(C(=O)OCC)c1cc(CNS(=O)(=O)c2ccc(C)cc2C)c2ccccc2n1
12,inactive,CCOC(=O)Cc1nc(NS(=O)(=O)c2c(C)cc(C)cc2C)c2ccccc2n1
13,inactive,Cc1ccc(S(=O)(=O)NNc2nc(NCC(N)=O)nc3ccccc23)cc1
14,inactive,O=C(O)[C@H]1CCCC[C@H]1C(=O)N1CCc2ccccc2[C@H]1CNS(=O)(=O)c1ccccc1
15,inactive,O=C(O)C1CCCCC1C(=O)Nc1ccccc1CN1C(=O)c2ccccc2C1=O (stereo not given)
16,inactive,O=C(O)CC(=O)N1CCc2ccccc2C1CN1C(=O)c2ccccc2C1=O (stereo not given)
17,inactive,O=C(O)C1CCCCC1C(=O)NCC1c2ccccc2CCN1C(=O)Cc1ccccc1 (stereo not given)
18,inactive,O=C(NC[C@@H]1c2ccccc2CCN1C(=O)[C@@H]1CCCC[C@@H]1C(=O)O)c1ccccc1CO
19,inactive,C[C@H](NC(=O)C1CCCC[C@H]1C(=O)O)c1ccccc1 (mixture of isomers)
20,inactive,O=C(NC[C@@H]1c2ccccc2CCN1C(=O)[C@@H]1CCCC[C@@H]1C(=O)O)OCC1c2ccccc2-c2ccccc21
21,inactive,COC(=O)[C@@H]1CCCC[C@@H]1C(=O)N1CCc2ccccc2[C@H]1CN1C(=O)c2ccccc2C1=O
22,inactive,Cc1ccc(S(=O)(=O)NNc2nc(C(C(=O)OC(C)C)C(=O)C(F)(F)F)nc3ccccc23)cc1 (stereo not given)

row,"activity change, negative = inhibition",Structure (SMILES)
1,inactive,O=C(NC[C@@H]1c2ccccc2CCN1C(=O)[C@@H]1CCCC[C@@H]1C(=O)O)c1ccccc1
2,inactive,O=C1c2ccccc2C(=O)N1C[C@H]1NCCc2ccccc21
3,inactive,C=CC(=O)NC[C@@H]1c2ccccc2CCN1C(=O)[C@@H]1CCCC[C@@H]1C(=O)O
4,inactive,COC(=O)[C@H]1CCCC[C@H]1C(=O)N1CCc2ccccc2[C@H]1CN1C(=O)c2ccccc2C1=O
5,inactive,COc1ccccc1CCNC(=O)[C@@H]1c2ccccc2CCN1C(=O)C1CCCCC1C(=O)O (stereo not given in full)
6,inactive,O=C(O)c1ccccc1C(=O)N1CCc2ccccc2C1CN1C(=O)c2ccccc2C1=O (stereo not given)
7,inactive,O=C(O)C1CCCCC1C(=O)N1CCc2ccccc2[C@H]1C(=O)NCCc1ccccc1 (stereo not given in full)
8,inactive,CC(C)CNc1nc(NS(=O)(=O)c2ccccc2)c2ccccc2n1
9,inactive,O=C(O)[C@@H]1CCCN1C(=O)N1CCc2ccccc2[C@H]1CN1C(=O)c2ccccc2C1=O
10,inactive,O=C(O)c1ccccc1C(=O)NC[C@@H]1c2ccccc2CCN1C(=O)[C@@H]1CCCC[C@@H]1C(=O)O
11,inactive,O=C(O)[C@H]1CCCC[C@H]1C(=O)N1CCc2ccccc2C1CCN1C(=O)c2ccccc2C1=O (stereo not given in full)
12,inactive,COC(=O)CNc1nc(NS(=O)(=O)c2c(C)cc(C)cc2C)c2ccccc2n1
13,inactive,O=C(Cc1ccccc1)NC[C@@H]1c2ccccc2CCN1C(=O)[C@@H]1CCCC[C@@H]1C(=O)O
14,inactive,Cc1cc(C)c(S(=O)(=O)Nc2cc(C(C(=O)OCc3ccccc3)C(=O)OCc3ccccc3)c(O)c3ccccc23)c(C)c1
15,inactive,Cc1cc(C)c(S(=O)(=O)Nc2nc(N(C)C)nc3ccccc23)c(C)c1
16,inactive,COC(=O)[C@@H]1CCCC[C@@H]1C(=O)N1CCc2ccccc2[C@@H]1CN1C(=O)c2ccccc2C1=O
17,inactive,O=C(NC[C@@H]1c2ccccc2CCN1C(=O)[C@@H]1CCCC[C@@H]1C(=O)O)c1ccc(CCl)cc1
18,inactive,Cc1cc(C)c(S(=O)(=O)Nc2nc(NCCO)nc3ccccc23)c(C)c1
19,inactive,CCOC(=O)C(C(=O)OCC)c1nc(NS(=O)(=O)c2c(C)cc(C)cc2C)c2ccccc2n1
20,inactive,O=C(NCCCN1CCOCC1)c1ccccc1C(=O)NC[C@@H]1c2ccccc2CCN1C(=O)C1CCCCC1C(=O)O (stereo not given in full)
21,inactive,O=C(O)CCC(=O)N1CCc2ccccc2C1CN1C(=O)c2ccccc2C1=O (stereo not given)
